In publication PMC5048095, “Agroindustrial Wastes as Alternative for Lipase Production by Candida viswanathii under Solid-State Cultivation: Purification, Biochemical Properties, and Its Potential for Poultry Fat Hydrolysis” (Enzyme Research, 2016):

Test system: T1, purified C. viswanathii lipase
T1 construct: native extracellular lipase from solid-state culture, Octyl Sepharose purified
Assay: p-nitrophenol release at […] nm, Lineweaver-Burk plot
Format: biochemical, Candida viswanathii
Details: 0.0 to 1.0 mM p-NPP; pH and temperature of the kinetic assay not given; free enzyme

With CCCCCCCCCCCCCCCC(=O)Oc1ccc([N+](=O)[O-])cc1 [p-NPP, p-nitrophenyl palmitate] the Km was 120 µM.
